Measurements from patent US11845724B2, “USP30 inhibitors and uses thereof” (Vincere Biosciences, Inc., priority 2019, dated 2023).
Read-outs that look alike come from different tables or passages of the source.

Columns and labels:
USP30 = USP30 (Homo sapiens (Human), UniProt Q70CQ3); assay: Dundee MALDI-TOF mass spectrometry assay (IC50); format: biochemical; conditions: USP30 25 ng/μl, K48-linked diubiquitin 5.6 μM, avg, read-out: Dundee IC50 μM (avg in vitro MS assay)
Procedure: Compounds were tested in a MALDI-TOF assay based on the paper by Ritorto et al. (Ritorto et al. Screening of DUB activity and specificity by MALDI-TOF mass spectrometry. Nat. […] USP30 (25 ng/μl) tested against K48-linked diubiquitin (5.6 μM). USP30 was diluted in a buffer containing 40 mM Tris, 0.01% BSA, 1 mM DTT and K48 in 40 mM Tris, 0.01% BSA. The compounds were pre-incubated with the USP30 for 5 mins at room temp before the K48 dimer addition. The assay mixture was then incubated for 45 mins at room temp. The assay was stopped by the addition of TFA to a final concentration of 2% (v/v). […] Then 250 nl of these solutions were spotted onto an MTP AnchorChip 1,536 TF and this is analysed on the Bruker rapifleX MALDI-TOF.

[1] = molecular target: recombinant USP30 (amino acids 57-517 of the human sequence) (Homo sapiens (Human), UniProt Q70CQ3); assay: In vitro USP30 biochemical assay (Ubiquitin-Rhodamine)
Chain of recombinant USP30 (amino acids 57-517 of the human sequence) (Q70CQ3 57-517): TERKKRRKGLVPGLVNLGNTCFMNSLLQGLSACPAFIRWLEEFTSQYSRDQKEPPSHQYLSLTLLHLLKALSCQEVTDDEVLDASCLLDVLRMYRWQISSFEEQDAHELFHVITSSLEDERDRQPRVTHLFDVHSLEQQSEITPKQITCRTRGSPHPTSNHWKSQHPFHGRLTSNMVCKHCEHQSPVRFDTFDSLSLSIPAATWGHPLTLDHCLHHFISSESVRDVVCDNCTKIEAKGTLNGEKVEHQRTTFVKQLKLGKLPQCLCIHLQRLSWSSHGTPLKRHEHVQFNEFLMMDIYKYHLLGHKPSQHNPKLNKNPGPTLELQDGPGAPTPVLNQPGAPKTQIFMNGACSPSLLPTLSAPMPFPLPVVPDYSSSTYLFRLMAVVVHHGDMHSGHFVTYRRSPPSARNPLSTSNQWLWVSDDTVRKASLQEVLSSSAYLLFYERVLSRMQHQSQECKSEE

[2] = USP30 IC50 μM (avg), Ubiquitin-Rhodamine substrate 25 nM, 1.5 nM recombinant USP30
[3] = read-out: USP30 IC50 μM (avg), Ubiquitin-Rhodamine substrate 25 nM, 1.5 nM recombinant USP30

Chain of USP30 (Q70CQ3 whole entry): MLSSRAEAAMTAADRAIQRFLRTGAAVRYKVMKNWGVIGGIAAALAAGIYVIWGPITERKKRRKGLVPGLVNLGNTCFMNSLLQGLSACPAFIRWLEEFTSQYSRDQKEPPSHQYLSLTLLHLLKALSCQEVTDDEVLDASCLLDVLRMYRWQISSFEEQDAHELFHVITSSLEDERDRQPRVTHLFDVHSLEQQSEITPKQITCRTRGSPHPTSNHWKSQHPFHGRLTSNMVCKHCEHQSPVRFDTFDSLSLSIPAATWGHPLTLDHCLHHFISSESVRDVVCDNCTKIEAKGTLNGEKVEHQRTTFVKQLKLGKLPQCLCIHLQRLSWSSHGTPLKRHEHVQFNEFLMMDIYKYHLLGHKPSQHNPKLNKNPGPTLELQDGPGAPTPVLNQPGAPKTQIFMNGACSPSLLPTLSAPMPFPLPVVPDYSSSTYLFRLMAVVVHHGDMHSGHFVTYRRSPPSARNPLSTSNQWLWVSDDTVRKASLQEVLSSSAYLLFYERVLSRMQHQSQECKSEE

IC50 (USP30) [µM] | IC50 [1, 2] [µM] | IC50 [1, 3] [µM] | Compound
0.05 to 1 | 1 to 10 | – | CC(C)(C)C[S+]([O-])c1ccc(NC(=O)[C@H](Cc2ccccc2)NC(=O)c2ccc(F)cc2)cc1 (stereo partly drawn) [Compound I-4, 4-fluoro-N-((2S)-1-(4-(neopentylsulfinyl)phenylamino)-1-oxo-3-phenylpropan-2-yl)benzamide]
< 0.05 | 0.05 to 1 | – | CCNS(=O)(=O)c1ccc(NC(=O)[C@H](Cc2ccccc2)NC(=O)c2ccc(F)cc2)cc1 [Compound I-5, (S)-N-(1-(4-(N-Ethylsulfamoyl)phenylamino)-1-oxo-3-phenylpropan-2-yl)-4-fluorobenzamide]
< 0.05 | – | < 0.05 | CC(C)(CF)NS(=O)(=O)c1ccc(NC(=O)[C@H](Cc2ccccc2)NC(=O)c2ccc(F)cc2)cc1 [Compound I-10, (S)-4-Fluoro-N-(1-(4-(N-(1-fluoro-2-methylpropan-2-yl)sulfamoyl)phenylamino)-1-oxo-3-phenylpropan-2-yl)benzamide]
< 0.05 | 0.05 to 1 | – | C[C@H](NS(=O)(=O)c1ccc(NC(=O)[C@H](Cc2ccccc2)NC(=O)c2ccc(F)cc2)cc1)C(F)(F)F [Compound I-13, 4-fluoro-N-((S)-1-oxo-3-phenyl-1-(4-(N-((S)-1,1,1-trifluoropropan-2-yl)sulfamoyl)phenylamino)propan-2-yl)benzamide]
< 0.05 | 0.05 to 1 | – | O=C(N[C@@H](Cc1ccccc1)C(=O)Nc1ccc(S(=O)(=O)NCC(F)(F)F)cc1)c1ccc(F)cc1 [Compound I-23, (S)-4-fluoro-N-(1-oxo-3-phenyl-1-(4-(N-(2,2,2-trifluoroethyl)sulfamoyl)phenylamino)propan-2-yl)benzamide]
< 0.05 | – | < 0.05 | CC(C)(NS(=O)(=O)c1ccc(NC(=O)[C@H](Cc2ccccc2)NC(=O)c2ccc(F)cc2)cc1)C(F)(F)F [Compound I-25, (S)-4-fluoro-N-(1-oxo-3-phenyl-1-(4-(N-(1,1,1-trifluoro-2-methylpropan-2-yl)sulfamoyl)phenylamino)propan-2-yl)benzamide]
0.05 to 1 | 0.05 to 1 | – | CNS(=O)(=O)c1ccc(NC(=O)[C@H](Cc2ccccc2)NC(=O)c2ccc(F)cc2)cc1 [Compound I-30, (S)-4-fluoro-N-(1-(4-(N-methylsulfamoyl)phenylamino)-1-oxo-3-phenylpropan-2-yl)benzamide]
0.05 to 1 | 0.05 to 1 | – | CN1CCC(NS(=O)(=O)c2ccc(NC(=O)[C@H](Cc3ccccc3)NC(=O)c3ccc(F)cc3)cc2)CC1 [Compound I-33, (S)-4-fluoro-N-(1-(4-(N-(1-methylpiperidin-4-yl)sulfamoyl)phenylamino)-1-oxo-3-phenylpropan-2-yl)benzamide]
< 0.05 | – | – | CC(C)(C)NS(=O)(=O)c1ccc(NC(=O)[C@H](Cc2ccccc2)NC(=O)c2ccc(F)cc2)nc1 [Compound I-61, (S)-N-(1-(5-(N-tert-butylsulfamoyl)pyridin-2-ylamino)-1-oxo-3-phenylpropan-2-yl)-4-fluorobenzamide]
< 0.05 | – | – | CC(C)(C)NS(=O)(=O)c1ccc(NC(=O)[C@H](Cc2ccccc2)NC(=O)c2ccc(F)cc2)cn1 [Compound I-62, (S)-N-(1-(6-(N-tert-butylsulfamoyl)pyridin-3-ylamino)-1-oxo-3-phenylpropan-2-yl)-4-fluorobenzamide]
0.05 to 1 | – | – | CC(C)(C)NS(=O)(=O)c1ccc(NC(=O)[C@H](Cc2ccccc2)NC(=O)c2ccc(F)cc2)s1 [Compound I-63, (S)-N-(1-(5-(N-tert-butylsulfamoyl)thiophen-2-ylamino)-1-oxo-3-phenylpropan-2-yl)-4-fluorobenzamide]
< 0.05 | – | – | C[C@@H](NS(=O)(=O)c1ccc(NC(=O)[C@H](Cc2ccccc2)NC(=O)c2ccc(F)cc2)cc1)C1CC1 [Compound I-67, N-((S)-1-(4-(N-((R)-1-cyclopropylethyl)sulfamoyl)phenylamino)-1-oxo-3-phenylpropan-2-yl)-4-fluorobenzamide]
1 to 10 | – | – | CC(C)(C)NS(=O)(=O)c1ccc(NC(=O)[C@H](Cc2ccccc2)N2Cc3ccccc3C2=O)cc1 [Compound I-69, (S)-N-(4-(N-tert-butylsulfamoyl)phenyl)-2-(1-oxoisoindolin-2-yl)-3-phenylpropanamide]
1 to 10 | 1 to 10 | – | CN(C(=O)c1ccc(F)cc1)[C@@H](Cc1ccccc1)C(=O)Nc1ccc(S(=O)(=O)NC2COC2)cc1 [Compound I-70, (S)-4-fluoro-N-methyl-N-(1-(4-(N-oxetan-3-ylsulfamoyl)phenylamino)-1-oxo-3-phenylpropan-2-yl)benzamide]
1 to 10 | 1 to 10 | – | CN(C(=O)c1ccc(F)cc1)[C@@H](Cc1ccccc1)C(=O)Nc1ccc(S(=O)(=O)NC23CC(C2)C3)cc1 [Compound I-72, (S)-N-(1-(4-(N-bicyclo[1.1.1]pentan-1-ylsulfamoyl)phenylamino)-1-oxo-3-phenylpropan-2-yl)-4-fluoro-N-methylbenzamide]
< 0.05 | 0.05 to 1 | – | O=C(N[C@@H](Cc1ccccc1)C(=O)Nc1ccc(S(=O)(=O)NC23CC(C2)C3)cc1)c1ccc(F)cn1 [Compound I-73, (S)-N-(1-(4-(N-bicyclo[1.1.1]pentan-1-ylsulfamoyl)phenylamino)-1-oxo-3-phenylpropan-2-yl)-5-fluoropicolinamide]
0.05 to 1 | 0.05 to 1 | – | O=C(N[C@@H](Cc1ccccc1)C(=O)Nc1ccc(S(=O)(=O)NC2CCCC2)cc1)c1ccc(F)cn1 [Compound I-74, (S)-N-(1-(4-(N-cyclopentylsulfamoyl)phenylamino)-1-oxo-3-phenylpropan-2-yl)-5-fluoropicolinamide]
0.05 to 1 | 0.05 to 1 | – | O=C(N[C@@H](Cc1ccccc1)C(=O)Nc1ccc(S(=O)(=O)NC2CCC2)cc1)c1ccc(F)cn1 [Compound I-75, (S)-N-(1-(4-(N-cyclobutylsulfamoyl)phenylamino)-1-oxo-3-phenylpropan-2-yl)-5-fluoropicolinamide]
0.05 to 1 | 1 to 10 | – | O=C(N[C@@H](Cc1ccccc1)C(=O)Nc1ccc(S(=O)(=O)NC23CC(C2)C3)cc1)c1ccccn1 [Compound I-76, (S)-N-(1-(4-(N-bicyclo[1.1.1]pentan-1-ylsulfamoyl)phenylamino)-1-oxo-3-phenylpropan-2-yl)picolinamide]
0.05 to 1 | 0.05 to 1 | – | O=C(N[C@@H](Cc1ccccc1)C(=O)Nc1ccc(S(=O)(=O)NC2CCCC2)cc1)c1ccccn1 [Compound I-77, (S)-N-(1-(4-(N-cyclopentylsulfamoyl)phenylamino)-1-oxo-3-phenylpropan-2-yl)picolinamide]
0.05 to 1 | 1 to 10 | – | O=C(N[C@@H](Cc1ccccc1)C(=O)Nc1ccc(S(=O)(=O)NC2CCC2)cc1)c1ccccn1 [Compound I-78, (S)-N-(1-(4-(N-cyclobutylsulfamoyl)phenylamino)-1-oxo-3-phenylpropan-2-yl) picolinamide]
0.05 to 1 | 1 to 10 | – | O=C(N[C@@H](Cc1ccccc1)C(=O)Nc1ccc(S(=O)(=O)NC23CC(C2)C3)cc1)c1cccnc1 [Compound I-79, (S)-N-(1-(4-(N-bicyclo[1.1.1]pentan-1-ylsulfamoyl)phenylamino)-1-oxo-3-phenylpropan-2-yl)nicotinamide]
0.05 to 1 | 0.05 to 1 | – | O=C(N[C@@H](Cc1ccccc1)C(=O)Nc1ccc(S(=O)(=O)NC2CCC2)cc1)c1cccnc1 [Compound I-81, (S)-N-(1-(4-(N-cyclobutylsulfamoyl)phenylamino)-1-oxo-3-phenylpropan-2-yl)nicotinamide]
0.05 to 1 | 0.05 to 1 | – | CC(C)(C)NS(=O)(=O)c1ccc(NC(=O)[C@H](Cc2ccccc2)N2CCc3ccccc3C2=O)cc1 [Compound I-84, (S)-N-(4-(N-tert-butylsulfamoyl)phenyl)-2-(1-oxo-3,4-dihydroisoquinolin-2(1H)-yl)-3-phenylpropanamide]
0.05 to 1 | – | < 0.05 | CC(C)(C)NS(=O)(=O)c1ccc(NC(=O)[C@H](Cc2ccccc2)NC(=O)c2ccc(F)cn2)cc1 [Compound I-85, (S)-N-(1-(4-(N-tert-butylsulfamoyl)phenylamino)-1-oxo-3-phenylpropan-2-yl)-5-fluoropicolinamide]
0.05 to 1 | 0.05 to 1 | – | CC(C)(C)NS(=O)(=O)c1ccc(NC(=O)[C@H](Cc2ccccc2)NC(=O)c2cccnc2)cc1 [Compound I-87, (S)-N-(1-(4-(N-tert-butylsulfamoyl)phenylamino)-1-oxo-3-phenylpropan-2-yl)nicotinamide]
< 0.05 | 0.05 to 1 | – | CC(C)(C)NS(=O)(=O)c1ccc(NC(=O)[C@H](Cc2ccccc2)NC(=O)c2cccc(F)c2)cc1 [Compound I-88, (S)-N-(1-(4-(N-tert-butylsulfamoyl)phenylamino)-1-oxo-3-phenylpropan-2-yl)-3-fluorobenzamide]
1 to 10 | – | > 10 | CN(C(=O)c1ccc(F)cc1)[C@@H](Cc1cccnc1)C(=O)Nc1ccc(S(=O)(=O)NC2COC2)cc1 [Compound I-89, (S)-4-fluoro-N-methyl-N-(1-(4-(N-oxetan-3-ylsulfamoyl)phenylamino)-1-oxo-3-(pyridin-3-yl)propan-2-yl)benzamide]
